Source: the supplement of paper PMC10307832

Assays:
Experiment in all cases: relative viability (nuclei count vs DMSO), 5 days (fraction); higher = more cells survive
17-AAG + Luminespib = compound: C=CCNC1=C2C[C@@H](C)C[C@H](OC)[C@H](O)[C@@H](C)/C=C(\C)[C@H](OC(N)=O)[C@@H](OC)/C=C\C=C(/C)C(=O)NC(=CC1=O)C2=O [17-AAG] + CCNC(=O)c1noc(-c2cc(C(C)C)c(O)cc2O)c1-c1ccc(CN2CCOCC2)cc1 [Luminespib] (partner 0.01 µM)
Procedure, shortened: (§1)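 Cells from lung cancer lines were seeded into 1536-well plates and, one day later, dosed by pin tool. Treatments were either a single drug or a fixed dose of an anchor drug with five library-drug doses (not always all listed) in √10 steps. After 5 days, nuclei were stained in a one-step fixation (final 0.05% Triton X-100, 1% formaldehyde, 1 ug/ml Hoechst) and counted on 4× images, and relative viability is the treated-to-vehicle nuclei ratio, as the median of duplicate plates.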

17-AAG + Tozasertib = compound: C=CCNC1=C2C[C@@H](C)C[C@H](OC)[C@H](O)[C@@H](C)/C=C(\C)[C@H](OC(N)=O)[C@@H](OC)/C=C\C=C(/C)C(=O)NC(=CC1=O)C2=O [17-AAG] + Cc1cc(Nc2cc(N3CCN(C)CC3)nc(Sc3ccc(NC(=O)C4CC4)cc3)n2)n[nH]1 [Tozasertib] (partner 0.1 µM)
Procedure, shortened: as §1

17-AAG + Foretinib = compound: C=CCNC1=C2C[C@@H](C)C[C@H](OC)[C@H](O)[C@@H](C)/C=C(\C)[C@H](OC(N)=O)[C@@H](OC)/C=C\C=C(/C)C(=O)NC(=CC1=O)C2=O [17-AAG] + COc1cc2c(Oc3ccc(NC(=O)C4(C(=O)Nc5ccc(F)cc5)CC4)cc3F)ccnc2cc1OCCCN1CCOCC1 [Foretinib] (partner 0.25 µM)
Procedure, shortened: as §1

17-AAG + AZD7762 = compound: C=CCNC1=C2C[C@@H](C)C[C@H](OC)[C@H](O)[C@@H](C)/C=C(\C)[C@H](OC(N)=O)[C@@H](OC)/C=C\C=C(/C)C(=O)NC(=CC1=O)C2=O [17-AAG] + NC(=O)Nc1cc(-c2cccc(F)c2)sc1C(=O)N[C@H]1CCCNC1 [AZD7762] (partner 0.2 µM)
Procedure, shortened: as §1

Cell Line	relative viability (17-AAG + Luminespib; first compound 0.00128 µM)	relative viability (17-AAG + Luminespib; first compound 0.004048 µM)	relative viability (17-AAG + Luminespib; first compound 0.0128 µM)	relative viability (17-AAG + Luminespib; first compound 0.04048 µM)	relative viability (17-AAG + Luminespib; first compound 0.128 µM)	relative viability (17-AAG + Tozasertib; first compound 0.00128 µM)	relative viability (17-AAG + Tozasertib; first compound 0.004048 µM)	relative viability (17-AAG + Tozasertib; first compound 0.0128 µM)	relative viability (17-AAG + Tozasertib; first compound 0.04048 µM)	relative viability (17-AAG + Tozasertib; first compound 0.128 µM)	relative viability (17-AAG + Foretinib; first compound 0.00128 µM)	relative viability (17-AAG + Foretinib; first compound 0.004048 µM)	relative viability (17-AAG + Foretinib; first compound 0.0128 µM)	relative viability (17-AAG + Foretinib; first compound 0.04048 µM)	relative viability (17-AAG + Foretinib; first compound 0.128 µM)	relative viability (17-AAG + AZD7762; first compound 0.00128 µM)	relative viability (17-AAG + AZD7762; first compound 0.004048 µM)	relative viability (17-AAG + AZD7762; first compound 0.0128 µM)	relative viability (17-AAG + AZD7762; first compound 0.04048 µM)	relative viability (17-AAG + AZD7762; first compound 0.128 µM)
201T	1.06	1.03	0.96	0.913	0.431	0.988	0.915	0.872	0.891	0.388	1.11	1.06	0.503	0.194	0.175	0.626	0.543	0.459	0.258	0.261
A549	–	–	–	–	–	–	–	–	–	–	0.963	0.815	0.55	0.0245	0.0282	–	–	–	–	–
A-427	0.994	0.902	0.66	0.379	0.183	0.21	0.221	0.238	0.257	0.186	1.11	0.983	1.05	1.2	0.847	0.819	0.798	0.618	0.268	0.234
ABC-1	0.439	0.758	0.565	0.38	0.238	0.163	0.2	0.185	0.207	0.175	0.9	0.882	1.08	1.05	0.432	0.902	0.726	0.844	0.835	0.498
BEN	0.33	0.408	0.206	0.241	0.194	0.529	0.625	0.473	0.738	0.472	0.626	0.767	0.649	0.517	0.411	0.692	0.891	0.648	0.5	0.392
CAL-12T	0.33	0.331	0.175	0.14	0.113	0.328	0.24	0.375	0.314	0.153	1.12	1.07	1.08	0.608	0.202	0.655	0.553	0.608	0.393	0.233
COR-L23	0.648	0.504	0.46	0.11	0.0893	0.2	0.25	0.225	0.158	0.0795	0.938	0.943	0.846	0.854	0.143	–	–	–	–	–
COR-L 105	0.858	0.708	0.671	0.432	0.224	0.458	0.356	0.384	0.713	0.418	0.965	1	0.805	0.715	0.31	–	–	–	–	–
Calu-6	–	–	–	–	–	–	–	–	–	–	0.833	0.899	0.754	0.249	0.121	–	–	–	–	–
ChaGo-K-1	0.577	0.627	0.442	0.199	0.181	0.215	0.249	0.279	0.217	0.205	0.916	0.829	0.851	0.861	0.313	0.843	0.871	0.861	0.449	0.217
EBC-1	–	–	–	–	–	–	–	–	–	–	0.101	0.13	0.138	0.104	0.0946	–	–	–	–	–
EKVX	0.879	0.857	0.742	0.187	0.13	0.448	0.377	0.398	0.238	0.0984	0.895	0.805	0.175	0.192	0.131	0.817	0.726	0.669	0.435	0.162
EMC-BAC-2	1.14	1.06	0.565	0.268	0.248	0.286	0.297	0.347	0.26	0.226	1.04	1.05	1.09	0.353	0.316	1.17	1.15	0.735	0.598	0.287
EPLC-272H	0.191	0.231	0.201	0.173	0.0978	0.331	0.329	0.482	0.379	0.143	0.704	0.412	0.772	0.216	0.125	0.208	0.3	0.207	0.13	0.101
H3255	0.716	0.872	0.536	0.203	0.208	0.957	0.496	0.612	0.234	0.228	0.943	0.874	0.819	0.252	0.249	0.876	1	0.674	0.252	0.245
HARA	0.831	0.544	0.757	0.525	0.207	0.0961	0.125	0.135	0.148	0.132	0.884	0.911	0.865	0.792	0.455	0.425	0.295	0.209	0.251	0.18
HCC-15	0.301	0.23	0.131	0.128	0.102	0.429	0.453	0.365	0.124	0.0778	0.907	0.718	0.29	0.137	0.12	1.29	1.27	0.986	0.461	0.158
HCC-44	0.758	0.663	0.228	0.217	0.172	0.898	0.753	0.293	0.19	0.135	–	–	–	–	–	1	1.02	1.03	0.973	0.398
